Assay results published in patent US20120101100A1 (priority 2008, published 2012).
Like-named read-outs stand apart in the source and are kept apart here.

Target: S. aureus GyrB ATPase (Staphylococcus aureus, UniProt P0A0K8)
Experiment: S. aureus (SAU) GyrB ATPase inhibition, malachite green phosphate detection (E. coli GyrA + S. aureus GyrB)
Type: biochemical
Details: for IC50: 10 compound concentrations, 500 μM ATP; for inhibition at 1 µM: read-out: S. aureus (SAU) GyrB ATPase % Inhibition
Procedure: Compounds were tested for inhibition of GyrB ATPase activity using an ammonium molybdate/malachite green-based phosphate detection assay (Lanzetta, P. A., L. J. Alvarez, P. S. Reinach, and O. A. Candia, 1979, 100: 95-97). Assays were performed in multiwell plates in 100 μl reactions containing: 50 mM Hepes buffer pH 7.5, 75 mM ammonium acetate, 8.0 mM magnesium chloride, 1.0 mM ethylenediaminetetraacetic acid, 5% glycerol, 2 mM 1,4-Dithio-DL-threitol, 400 nM bovine serum albumin, 5 μg/ml sheared salmon sperm DNA, 1.25 nM E. coli GyrA, 1.25 nM S. aureus GyrB, 500 μM ATP, and compound in dimethylsulfoxide. Reactions were quenched with 150 μl of ammonium molybdate/malachite green detection reagent containing 1.2 mM malachite green hydrochloride, 8.5 mM ammonium molybdate tetrahydrate, and 1 M hydrochloric acid. Plates were read in an absorbance plate reader at 650 nm and percent inhibition values were calculated using dimethylsulfoxide (2%)-containing reactions as 0% inhibition and novobiocin-containing (2 μM) reactions as 100% inhibition controls. Compound potency was based on IC50 measurements determined from reactions performed in the presence of 10 different compound concentrations.

[1] = compound concentration of 1.0 μM unless otherwise noted, average value where assay was carried out more than once

S. aureus GyrB ATPase, sequence (P0A0K8 whole entry): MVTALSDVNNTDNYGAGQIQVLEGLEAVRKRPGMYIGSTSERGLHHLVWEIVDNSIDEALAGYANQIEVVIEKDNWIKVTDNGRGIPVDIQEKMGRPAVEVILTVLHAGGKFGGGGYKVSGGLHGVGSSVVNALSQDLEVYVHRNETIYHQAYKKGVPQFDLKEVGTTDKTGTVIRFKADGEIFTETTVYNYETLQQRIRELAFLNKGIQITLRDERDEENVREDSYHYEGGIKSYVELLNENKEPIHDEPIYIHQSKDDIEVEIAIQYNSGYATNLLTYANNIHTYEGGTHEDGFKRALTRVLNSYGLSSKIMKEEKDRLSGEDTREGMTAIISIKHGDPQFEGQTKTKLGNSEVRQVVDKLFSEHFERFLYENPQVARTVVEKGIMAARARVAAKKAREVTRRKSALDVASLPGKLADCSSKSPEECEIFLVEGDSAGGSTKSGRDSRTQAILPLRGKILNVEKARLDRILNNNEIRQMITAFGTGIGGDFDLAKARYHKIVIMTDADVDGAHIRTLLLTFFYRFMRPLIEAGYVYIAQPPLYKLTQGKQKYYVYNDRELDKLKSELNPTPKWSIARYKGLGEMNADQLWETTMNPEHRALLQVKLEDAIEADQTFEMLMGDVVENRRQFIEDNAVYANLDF
S. aureus GyrB ATPase, sequence (P0AES4 whole entry, further chain): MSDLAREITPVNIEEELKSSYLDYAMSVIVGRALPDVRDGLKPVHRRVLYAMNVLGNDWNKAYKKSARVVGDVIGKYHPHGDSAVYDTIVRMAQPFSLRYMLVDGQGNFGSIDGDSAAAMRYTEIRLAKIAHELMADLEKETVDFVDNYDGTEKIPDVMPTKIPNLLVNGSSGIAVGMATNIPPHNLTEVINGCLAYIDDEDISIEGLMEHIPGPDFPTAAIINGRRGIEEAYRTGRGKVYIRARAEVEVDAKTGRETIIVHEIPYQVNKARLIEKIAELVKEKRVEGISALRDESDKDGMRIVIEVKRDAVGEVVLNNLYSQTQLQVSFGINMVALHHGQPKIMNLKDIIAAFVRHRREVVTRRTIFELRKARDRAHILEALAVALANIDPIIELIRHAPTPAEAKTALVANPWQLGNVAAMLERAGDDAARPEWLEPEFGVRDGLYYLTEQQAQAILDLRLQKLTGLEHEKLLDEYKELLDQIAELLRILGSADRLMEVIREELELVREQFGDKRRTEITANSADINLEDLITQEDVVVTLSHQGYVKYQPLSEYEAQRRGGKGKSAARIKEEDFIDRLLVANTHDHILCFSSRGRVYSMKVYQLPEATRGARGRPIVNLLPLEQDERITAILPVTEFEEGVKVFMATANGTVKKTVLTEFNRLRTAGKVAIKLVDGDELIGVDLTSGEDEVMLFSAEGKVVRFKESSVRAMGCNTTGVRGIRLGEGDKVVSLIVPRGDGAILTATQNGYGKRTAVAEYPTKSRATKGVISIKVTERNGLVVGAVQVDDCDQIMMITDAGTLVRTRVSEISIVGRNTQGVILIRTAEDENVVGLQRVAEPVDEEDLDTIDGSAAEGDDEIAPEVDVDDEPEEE

## 1-Ethyl-3-(5′-(5-oxo-2,5-dihydro-1H-pyrazol-3-yl)-3,3′-bipyridin-6-yl)urea [Example 17]
  IC50: 0.01 µM
[1]
  S. aureus (SAU) GyrB ATPase % Inhibition: 102.2%

## CCNC(=O)Nc1cc(-c2nc(C(F)(F)F)cs2)c(-c2cncc(-c3nnc(C)o3)c2)cn1 [Example 1, 1-Ethyl-3-(5′-(5-methyl-1,3,4-oxadiazol-2-yl)-4-(4-(trifluoromethyl)thiazol-2-yl)-3,3′-bipyridin-6-yl)urea]
[1]
  inhibition at 1 µM: 99%

## CCNC(=O)Nc1cc(-c2nc(C(F)(F)F)cs2)c(-c2cncc(C#N)c2)cn1 [Example 2, 1-(5′-cyano-4-(4-(trifluoromethyl)thiazol-2-yl)-3,3′-bipyridin-6-yl)-3-ethylurea]
  inhibition at 1 µM: 88%

## CCNC(=O)Nc1cc(-c2nc(C(F)(F)F)cs2)c(-c2cncc(-c3nnn[nH]3)c2)cn1 [Example 3, 1-(5′-(2H-tetrazol-5-yl)-4-(4-(trifluoromethyl)thiazol-2-yl)-3,3′-bipyridin-6-yl)-3-ethylurea]
[1]
  inhibition at 1 µM: 88%

## CCNC(=O)Nc1cc(-c2nc(C(F)(F)F)cs2)c(-c2cncc(-c3nnc(C(C)C)o3)c2)cn1 [Example 4]
[1]
  inhibition at 1 µM: 99%

## CCNC(=O)Nc1cc(-c2nc(C(F)(F)F)cs2)c(-c2cncc(-c3nnc(C(C)C)s3)c2)cn1 [Example 5, 1-Ethyl-3-(5′-(5-isopropyl-1,3,4-thiadiazol-2-yl)-4-(4-(trifluoromethyl)thiazol-2-yl)-3,3′-bipyridin-6-yl)urea]
[1]
  inhibition at 1 µM: 112%

## CCNC(=O)Nc1cc(-c2nc(C(F)(F)F)cs2)c(-c2cncc(-c3n[nH]c(=O)o3)c2)cn1 [Example 6, 1-ethyl-3-(5′-(5-oxo-4,5-dihydro-1,3,4-oxadiazol-2-yl)-4-(4-(trifluoromethyl)thiazol-2-yl)-3,3′-bipyridin-6-yl)urea]
[1]
  inhibition at 1 µM: 106%

## CCNC(=O)Nc1cc(-c2nc(C(F)(F)F)cs2)c(-c2cncc(-c3nc(C)n[nH]3)c2)cn1 [Example 7, 1-Ethyl-3-(5′-(3-methyl-1H-1,2,4-triazol-5-yl)-4-(4-(trifluoromethyl)thiazol-2-yl)-3,3′-bipyridin-6-yl)urea]
[1]
  inhibition at 1 µM: 90%

## CCNC(=O)Nc1cc(-c2nc(C(F)(F)F)cs2)c(-c2cncc(-c3nc(C)no3)c2)cn1 [Example 8]
[1]
  inhibition at 1 µM: 95%

## CCNC(=O)Nc1cc(-c2nc(C(F)(F)F)cs2)c(-c2ncc(-c3n[nH]c(=O)o3)s2)cn1 [Example 9, 1-ethyl-3-(5-(5-(5-oxo-4,5-dihydro-1,3,4-oxadiazol-2-yl)thiazol-2-yl)-4-(4-(trifluoromethyl)thiazol-2-yl)pyridin-2-yl)urea]
[1]
  inhibition at 1 µM: 106%

## CCNC(=O)Nc1cc(-c2nc(-c3ccccn3)cs2)c(-c2cncc(-c3n[nH]c(=O)o3)c2)cn1 [Example 10, N-ethyl-N′-[5′-(5-oxo-4,5-dihydro-1,3,4-oxadiazol-2-yl)-4-(4-pyridin-2-yl-1,3-thiazol-2-yl)-3,3′-bipyridin-6-yl]urea]
[1]
  inhibition at 1 µM: 95%

## CCNC(=O)Nc1cc(-c2nc(-c3ccccc3)cs2)c(-c2cncc(-c3n[nH]c(=O)o3)c2)cn1 [Example 11, 1-ethyl-3-(5′-(5-oxo-4,5-dihydro-1,3,4-oxadiazol-2-yl)-4-(4-phenylthiazol-2-yl)-3,3′-bipyridin-6-yl)urea]
[1]
  inhibition at 1 µM: 107%

## CCNC(=O)Nc1cc(-c2nc3ccccc3s2)c(-c2cncc(-c3n[nH]c(=O)o3)c2)cn1 [Example 12, 1-(4-(benzo[d]thiazol-2-yl)-5′-(5-oxo-4,5-dihydro-1,3,4-oxadiazol-2-yl)-3,3′-bipyridin-6-yl)-3-ethylurea]
[1]
  inhibition at 1 µM: 108%

## CCNC(=O)Nc1cc(-c2nc(C(F)(F)F)cs2)c(-c2ccc3nccnc3c2)cn1 [Example 13]
[1]
  inhibition at 1 µM: 103%

## CCNC(=O)Nc1cc(-c2nc(C(F)(F)F)cs2)c(-c2ccc[n+]([O-])c2)cn1 [Example 15, 6′-(3-Ethylureido)-4′-(4-(trifluoromethyl)thiazol-2-yl)-3,3′-bipyridine 1-oxide]
[1]
  inhibition at 1 µM: 93%

## CCNC(=O)Nc1cc(-c2nc(C(F)(F)F)cs2)c(-c2nc3c(=O)[nH][nH]c(=O)c3s2)cn1 [Example 16, 1-{5-(4,7-dioxo-4,5,6,7-tetrahydro[1,3]thiazolo[4,5-d]pyridazin-2-yl)-4-[4-(trifluoromethyl)-1,3-thiazol-2-yl]pyridin-2-yl}-3-ethylurea]
[1]
  inhibition at 1 µM: 115%

## CCNC(=O)Nc1cc(-c2nc(C(F)(F)F)cs2)c(-c2cncc(-c3noc(=S)[nH]3)c2)cn1 [Example 18, 1-Ethyl-3-(5′-(5-thioxo-4,5-dihydro-1,2,4-oxadiazol-3-yl)-4-(4-(trifluoromethyl)thiazol-2-yl)-3,3′-bipyridin-6-yl)urea]
[1]
  inhibition at 1 µM: 113%

## CCNC(=O)Nc1cc(-c2nc(C(F)(F)F)cs2)c(-c2cncc(-c3noc(=O)[nH]3)c2)cn1 [Example 19, 1-Ethyl-3-(5′-(5-oxo-4,5-dihydro-1,2,4-oxadiazol-3-yl)-4-(4-(trifluoromethyl)thiazol-2-yl)-3,3′-bipyridin-6-yl)urea]
  inhibition at 1 µM: 110%

## CCNC(=O)Nc1cc(-c2nc(C(F)(F)F)cs2)c(-c2cncc(C3=NOS(=O)N3)c2)cn1 (stereo not drawn) [Example 20]
[1]
  inhibition at 1 µM: 111%

## CCNC(=O)Nc1cc(-c2nc(C(F)(F)F)cs2)c(-c2cncc(S(C)(=O)=O)c2)cn1 [Example 22, 1-Ethyl-3-(5′-(methylsulfonyl)-4-(4-(trifluoromethyl)thiazol-2-yl)-3,3′-bipyridin-6-yl)urea]
[1]
  inhibition at 1 µM: 114%

## CCNC(=O)Nc1cc(-c2nc(C(F)(F)F)cs2)c(-c2cncc(S(N)(=O)=O)c2)cn1 [Example 23, 6′-(3-Ethylureido)-4′-(4-(trifluoromethyl)thiazol-2-yl)-3,3′-bipyridine-5-sulfonamide]
[1]
  inhibition at 1 µM: 110%

## CCNC(=O)Nc1cc(-c2nc(C(F)(F)F)cs2)c(-c2cncc(-c3cnn(C)c3)c2)cn1 [Example 24, 1-Ethyl-3-(5′-(1-methyl-1H-pyrazol-4-yl)-4-(4-(trifluoromethyl)thiazol-2-yl)-3,3′-bipyridin-6-yl)urea]
[1]
  inhibition at 1 µM: 109%

## CCNC(=O)Nc1cc(-c2nc(C(F)(F)F)cs2)c(-c2cncc(-c3ncc[nH]3)c2)cn1 [Example 25, 1-(5′-(1H-Imidazol-2-yl)-4-(4-(trifluoromethyl)thiazol-2-yl)-3,3′-bipyridin-6-yl)-3-ethylurea]
  IC50: 0.003 µM
[1]
  inhibition at 1 µM: 100%

## CCNC(=O)Nc1cc(-c2nc(C(F)(F)F)cs2)c(-c2cncc(C3=NCCO3)c2)cn1 [Example 26, 1-(5′-(4,5-Dihydrooxazol-2-yl)-4-(4-(trifluoromethyl)thiazol-2-yl)-3,3′-bipyridin-6-yl)-3-ethylurea]
[1]
  inhibition at 1 µM: 105%

## CCNC(=O)Nc1cc(-c2nc(-c3cnn(C)c3)cs2)c(-c2cncc(-c3n[nH]c(=O)o3)c2)cn1 [Example 27, 1-ethyl-3-(4-(4-(1-methyl-1H-pyrazol-4-yl)thiazol-2-yl)-5′-(5-oxo-4,5-dihydro-1,3,4-oxadiazol-2-yl)-3,3′-bipyridin-6-yl)urea]
[1]
  inhibition at 1 µM: 109%

## CCNC(=O)Nc1cc(-c2ccnn2C)c(-c2cncc(-c3n[nH]c(=O)o3)c2)cn1 [Example 28, 1-ethyl-3-(4-(1-methyl-1H-pyrazol-5-yl)-5′-(5-oxo-4,5-dihydro-1,3,4-oxadiazol-2-yl)-3,3′-bipyridin-6-yl)urea]
[1]
  inhibition at 1 µM: 70%

## CCNC(=O)Nc1cc(-c2nc(C(F)(F)F)cs2)c(-c2cccc(-n3cccn3)n2)cn1 [Example 29]
[1]
  inhibition at 1 µM: 114%

## CCNC(=O)Nc1cc(-c2nc(C(F)(F)F)cs2)c(-c2csc(N3CCOCC3)n2)cn1 [Example 30, 1-ethyl-3-(5-(2-morpholinothiazol-4-yl)-4-(4-(trifluoromethyl)thiazol-2-yl)pyridin-2-yl)urea]
[1]
  inhibition at 1 µM: 105%

## CCNC(=O)Nc1cc(-c2nc(C(F)(F)F)cs2)c(-c2cncc(C#N)n2)cn1 [Example 31, 1-(5-(6-cyanopyrazin-2-yl)-4-(4-(trifluoromethyl)thiazol-2-yl)pyridin-2-yl)-3-ethylurea]
[1]
  inhibition at 1 µM: 113%

## CCNC(=O)Nc1cc(-c2nc(C(F)(F)F)cs2)c(-c2cccc(C#N)n2)cn1 [Example 32, 1-(6-cyano-4′-(4-(trifluoromethyl)thiazol-2-yl)-2,3′-bipyridin-6′-yl)-3-ethylurea]
  IC50: 0.062 µM
[1]
  inhibition at 1 µM: 106%

## CCNC(=O)Nc1cc(-c2nc(C(F)(F)F)cs2)c(-c2ccnc(-c3n[nH]c(=O)o3)c2)cn1 [Example 33, 1-ethyl-3-(2′-(5-oxo-4,5-dihydro-1,3,4-oxadiazol-2-yl)-4-(4-(trifluoromethyl)thiazol-2-yl)-3,4′-bipyridin-6-yl)urea]
[1]
  inhibition at 1 µM: 117%

## CCNC(=O)Nc1cc(-c2nc(C(F)(F)F)cs2)c(-c2nc(C)cc(-c3n[nH]c(=O)o3)n2)cn1 [Example 34, 1-ethyl-3-(5-(4-methyl-6-(5-oxo-4,5-dihydro-1,3,4-oxadiazol-2-yl)pyrimidin-2-yl)-4-(4-(trifluoromethyl)thiazol-2-yl)pyridin-2-yl)urea]
[1]
  inhibition at 1 µM: 93%

## CCNC(=O)Nc1cc(-c2nc(C(F)(F)F)cs2)c(-c2cncc(-c3n[nH]c(=O)o3)n2)cn1 [Example 35, 1-ethyl-3-(5-(6-(5-oxo-4,5-dihydro-1,3,4-oxadiazol-2-yl)pyrazin-2-yl)-4-(4-(trifluoromethyl)thiazol-2-yl)pyridin-2-yl)urea]
[1]
  inhibition at 1 µM: 103%
